Test results from patent US20260132127A1, “NOVEL SPIRO COMPOUND” (MITSUBISHI TANABE PHARMA CORPORATION, priority 2021, published 2026).

Target: T1, human TRH-DE (Homo sapiens, UniProt Q9UKU6)
T1 construct: expressed in transfected cells; host or cells: Expi 293 cells (transient expression), membrane fraction
T1 sequence (Q9UKU6 1-1069): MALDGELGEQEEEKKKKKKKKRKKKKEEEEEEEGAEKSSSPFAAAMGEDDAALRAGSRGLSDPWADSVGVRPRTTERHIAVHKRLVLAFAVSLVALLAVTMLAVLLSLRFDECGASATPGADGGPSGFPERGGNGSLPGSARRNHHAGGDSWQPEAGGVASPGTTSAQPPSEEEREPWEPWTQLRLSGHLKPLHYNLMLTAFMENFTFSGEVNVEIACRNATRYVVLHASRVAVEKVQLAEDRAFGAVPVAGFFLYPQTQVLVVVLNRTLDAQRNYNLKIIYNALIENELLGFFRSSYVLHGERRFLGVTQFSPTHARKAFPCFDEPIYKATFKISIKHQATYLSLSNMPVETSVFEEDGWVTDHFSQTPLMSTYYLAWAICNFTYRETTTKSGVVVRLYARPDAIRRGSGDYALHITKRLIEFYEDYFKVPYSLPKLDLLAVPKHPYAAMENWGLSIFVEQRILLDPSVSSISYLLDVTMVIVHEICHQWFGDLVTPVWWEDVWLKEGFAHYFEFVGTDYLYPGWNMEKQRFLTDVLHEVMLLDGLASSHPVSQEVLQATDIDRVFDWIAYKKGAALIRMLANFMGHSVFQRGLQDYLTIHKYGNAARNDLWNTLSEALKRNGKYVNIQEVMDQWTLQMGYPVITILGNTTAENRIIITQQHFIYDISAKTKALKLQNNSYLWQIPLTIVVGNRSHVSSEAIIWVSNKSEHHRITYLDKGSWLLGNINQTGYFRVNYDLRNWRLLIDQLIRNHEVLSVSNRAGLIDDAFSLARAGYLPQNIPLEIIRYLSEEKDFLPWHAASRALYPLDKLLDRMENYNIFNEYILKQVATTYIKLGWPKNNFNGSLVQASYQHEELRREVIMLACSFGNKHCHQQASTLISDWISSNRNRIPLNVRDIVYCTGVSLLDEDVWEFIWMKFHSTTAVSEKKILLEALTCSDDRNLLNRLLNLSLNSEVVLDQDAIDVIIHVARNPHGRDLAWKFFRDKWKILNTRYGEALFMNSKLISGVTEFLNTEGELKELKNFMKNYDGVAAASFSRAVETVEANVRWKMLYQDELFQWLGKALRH
Experiment: TRH-DE inhibition test (RapidFire MS measurement of product Cyclo (His-Pro))
Format: biochemical
Details: membrane fraction of Expi 293 cells expressing human TRH-DE; 10 μM TRH substrate; room temperature, 2 hours; 16-point concentration test
Outline: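 Inhibition derived from product/internal-standard ratios of Cyclo(His-Pro), quantified by RapidFire triple-quadrupole MS after acetonitrile:methanol quench, with IC50 fitted over 16 concentrations. Enzyme source: membranes of Expi 293 cells transiently expressing human TRH-DE, 4 μg/ml, pH 7.4 phosphate buffer. Incubation with 10 μM substrate ran 2 h at room temperature.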

Row | Compound | IC50 [nM]
1 | Cc1nn(C2CC3(C2)CN(S(=O)(=O)c2ccccc2)C3)c(=O)c2ccccc12 [Example 241] | 616
2 | Cc1nn(C2CC3(C2)CN(S(=O)(=O)c2ccccc2F)C3)c(=O)c2ncccc12 [Example 243] | 436
3 | CCN1C[C@@H](C)N(C2CC3(C2)CN(S(=O)(=O)c2ccccc2F)C3)C(=O)c2ncccc21 [Example 245, (3R)-1-ethyl-4-[2-(2-fluorophenyl)sulfonyl-2-azaspiro[3.3]heptan-6-yl]-3-methyl-2,3-dihydropyrido[3,2-e][1,4]diazepin-5-one] | 2
4 | COCCCN1C[C@@H](C)N(C2CC3(C2)CN(S(=O)(=O)c2ccccc2F)C3)C(=O)c2ncccc21 [Example 246] | 22
5 | C[C@@H]1CN(C)c2nc(C(F)(F)F)ccc2C(=O)N1C1CC2(C1)CN(S(=O)(=O)c1ccccc1F)C2 [Example 247, (3R)-4-[2-(2-fluorophenyl)sulfonyl-2-azaspiro[3.3]heptan-6-yl]-1,3-dimethyl-8-(trifluoromethyl)-2,3-dihydropyrido[2,3-e][1,4]diazepin-5-one] | 2
6 | CCn1c2ccccc2c(=O)n1C1CC2(C1)CN(S(=O)(=O)c1ccccc1)C2 [Example 250, 2-[2-benzenesulfonyl-2-azaspiro[3.3]heptan-6-yl]-1-ethyl-indazol-3-one] | 214
7 | C[C@@H]1CNc2nc(Cl)ccc2C(=O)N1C1CC2(C1)CN(S(=O)(=O)c1ccccc1F)C2 [Example 251, (3R)-8-chloro-4-[2-(2-fluorophenyl)sulfonyl-2-azaspiro[3.3]heptan-6-yl]-3-methyl-2,3-dihydro-1H-pyrido[2,3-e][1,4]diazepin-5-one] | 1
8 | C[C@@H]1CNc2cc(Cl)cnc2C(=O)N1C1CC2(C1)CN(S(=O)(=O)c1ccccc1F)C2 [Example 253] | 8
9 | C[C@@H]1CNc2cc(C(F)(F)F)cnc2C(=O)N1C1CC2(C1)CN(S(=O)(=O)c1ccccc1F)C2 [Example 254] | 2
10 | C[C@@H]1CNc2ncc(C(F)(F)F)cc2C(=O)N1C1CC2(C1)CN(S(=O)(=O)c1ccccc1F)C2 [Example 256] | 3
11 | C[C@@H]1CNc2ncc(C(F)(F)F)cc2C(=O)N1C1CC2(C1)CN(S(=O)(=O)c1ccccc1[N+](=O)[O-])C2 [Example 257] | 61
12 | C[C@@H]1CNc2nc(C3CC3)ccc2C(=O)N1C1CC2(C1)CN(S(=O)(=O)c1ccccc1F)C2 [Example 258, (3R)-8-cyclopropyl-4-[2-(2-fluorophenyl)sulfonyl-2-azaspiro[3.3]heptan-6-yl]-3-methyl-2,3-dihydro-1H-pyrido[2,3-e][1,4]diazepin-5-one] | 1
13 | Cc1nnc2n1CC[C@@H](C)N(C1CC3(C1)CN(S(=O)(=O)c1ccccc1F)C3)C2=O [Example 260, (7R)-8-[2-(2-fluorophenyl)sulfonyl-2-azaspiro[3.3]heptan-6-yl]-3,7-dimethyl-6,7-dihydro-5H-[1,2,4]triazolo[4,3-a][1,4]diazepin-9-one] | 97
14 | C[C@@H]1CCn2c(nnc2C2CC2)C(=O)N1C1CC2(C1)CN(S(=O)(=O)c1ccccc1F)C2 [Example 261] | 28
15 | C[C@@H]1CCn2c(nnc2C(C)(C)C)C(=O)N1C1CC2(C1)CN(S(=O)(=O)c1ccccc1F)C2 [Example 262] | 91
16 | Cc1nnc2n1C[C@@H](C)N(C1CC3(C1)CN(S(=O)(=O)c1ccccc1F)C3)C2=O [Example 264] | 459
17 | C[C@@H]1Cn2c(nnc2C2CC2)C(=O)N1C1CC2(C1)CN(S(=O)(=O)c1ccccc1F)C2 [Example 265] | 287
18 | CC1(O)c2cc(C(F)(F)F)cnc2C(=O)N1C1CC2(C1)CN(S(=O)(=O)c1ccccc1F)C2 (stereo not shown) [Example 275, 6-[2-(2-fluorophenyl)sulfonyl-2-azaspiro[3.3]heptan-6-yl]-5-hydroxy-5-methyl-3-(trifluoromethyl)pyrrolo[3,4-b]pyridin-7-one] | 42
19 | CC1c2cc(C(F)(F)F)cnc2C(=O)N1C1CC2(C1)CN(S(=O)(=O)c1ccccc1F)C2 (stereo not shown) [Example 290, 6-[2-(2-fluorophenyl)sulfonyl-2-azaspiro[3.3]heptan-6-yl]-5-methyl-3-(trifluoromethyl)-5H-pyrrolo[3,4-b]pyridin-7-one] | 104
20 | C[C@@H]1COc2c(noc2Br)C(=O)N1C1CC2(C1)CN(S(=O)(=O)c1ccccc1F)C2 [Example 297, (6R)-3-bromo-7-[2-(2-fluorophenyl)sulfonyl-2-azaspiro[3.3]heptan-6-yl]-6-methyl-5,6-dihydroisoxazolo[3,4-f][1,4]oxazepin-8-one] | 18
21 | C[C@@H]1Cn2c(Br)nc(C3CC3)c2C(=O)N1C1CC2(C1)CN(S(=O)(=O)c1ccccc1F)C2 [Example 298] | 25
22 | C[C@@H]1CCn2c(C3CC3)nc(Cl)c2C(=O)N1C1CC2(C1)CN(S(=O)(=O)c1ccccc1F)C2 [Example 299] | 33
23 | CC(=O)N1C[C@@H](C)N(C2CC3(C2)CN(S(=O)(=O)c2ccccc2F)C3)C(=O)c2ncccc21 [Example 302, (3R)-1-acetyl-4-[2-(2-fluorophenyl)sulfonyl-2-azaspiro[3.3]heptan-6-yl]-3-methyl-2,3-dihydropyrido[3,2-e][1,4]diazepin-5-one] | 47
24 | CCC(=O)N1C[C@@H](C)N(C2CC3(C2)CN(S(=O)(=O)c2ccccc2F)C3)C(=O)c2ncccc21 [Example 303] | 82

Continued, values first:

Row | IC50 [nM] | Compound
25 | 655 | Cc1nn(C2CC3(C2)CN(S(=O)(=O)c2ccccc2F)C3)c(=O)c2ccccc12 [Example 242]
26 | 42 | O=C1c2ccccc2C2(CC2)N1C1CC2(C1)CN(S(=O)(=O)c1ccccc1F)C2 [Example 244]
27 | 731 | CC1c2ccccc2N(C)C(=O)CN1C1CC2(C1)CN(S(=O)(=O)c1ccccc1F)C2 (stereo not shown) [Example 248]
28 | 7 | C[C@@H]1CNc2ncccc2C(=O)N1C1CC2(C1)CN(S(=O)(=O)c1ccccc1F)C2 [Example 255]
29 | 32 | C[C@@H]1CCn2c(nnc2-c2ccccc2)C(=O)N1C1CC2(C1)CN(S(=O)(=O)c1ccccc1F)C2 [Example 263]
30 | 92 | CC1c2ccccc2C(=O)N1C1CC2(C1)CN(S(=O)(=O)c1ccccc1F)C2 (stereo not shown) [Example 266, 2-[2-(2-fluorophenyl)sulfonyl-2-azaspiro[3.3]heptan-6-yl]-3-methyl-isoindolin-1-one]
31 | 67 | CC1(O)c2ccccc2C(=O)N1C1CC2(C1)CN(S(=O)(=O)c1ccccc1F)C2 (stereo not shown) [Example 283, 2-[2-(2-fluorophenyl)sulfonyl-2-azaspiro[3.3]heptan-6-yl]-3-hydroxy-3-methyl-isoindolin-1-one]
32 | 419 | CC1c2ccncc2C(=O)N1C1CC2(C1)CN(S(=O)(=O)c1ccccc1F)C2 (stereo not shown) [Example 296, 2-[2-(2-fluorophenyl)sulfonyl-2-azaspiro[3.3]heptan-6-yl]-1-methyl-1H-pyrrolo[3,4-c]pyridin-3-one]
33 | 168 | CC1CC(F)(F)c2ncccc2C(=O)N1C1CC2(C1)CN(S(=O)(=O)c1ccccc1F)C2 (stereo not shown) [Example 300, 9,9-Difluoro-6-[2-(2-fluorophenyl)sulfonyl-2-azaspiro[3.3]heptan-6-yl]-7-methyl-7,8-dihydropyrido[3,2-c]azepin-5-one]
34 | 91 | CC1C=C(F)c2ncccc2C(=O)N1C1CC2(C1)CN(S(=O)(=O)c1ccccc1F)C2 (stereo not shown) [Example 301, 9-fluoro-6-[2-(2-fluorophenyl)sulfonyl-2-azaspiro[3.3]heptan-6-yl]-7-methyl-7H-pyrido[3,2-c]azepin-5-one]
